# “Also recorded” adds a separate entry of the source.
# Key:
# [1] = Earlier 28-day tolerability work in rats; details: 28 days
# [2] = tested on: NLRP3; assay: qPCR of NLRP3 in A549 cells; type: cell-based, human; details: 0.5-4 μg/mL, 24 hours, compared to untreated cells
# Protocol: Protocol: A549 cells were grown in tissue culture flasks and a 24-well plate was seeded with 2×10^5 cells/well and incubated at 37° C. and 5% CO2 for 48 hours. Select wells were treated with either 4 μg/mL, 2 μg/mL, 1 μg/mL, or 0.5 μg/mL BisEDT or left untreated as a control and incubated at 37° C. and 5% CO2 for 24 hours. Cell culture supernatant was collected from each well and stored at −20° C. until further analysis. Cells were collected for RNA isolation using Qiagen RNeasy kit using manufacturer's instructions. Briefly, genomic DNA was degraded with DNase (Roche) and samples were incubated at 37° C. for 1 hour followed by 3 μL DNase inactivation reagent (Invitrogen) incubated at 37° C. for 2 minutes. Samples were centrifuged at maximum speed for 5 minutes to remove the inactivation reagent. RNA concentration and quality was evaluated using a Nanodrop. RNA samples were utilized to generate cDNA using cDNA synthesis kit (Bio-Rad). qPCR for NLRP3 and actin (housekeeping gene) was conducted using SYBR green kit (Bio-Rad) along with standard.
# [3] = tested on: NLRP3 inflammasome; assay: RT-qPCR of NLRP3 inflammasome expression in THP-1 macrophages, uninfected or infected; type: cell-based
# Protocol: THP-1 macrophages were differentiated with 50 ng/ml PMA for 24 hours, followed by 24 hours in media prior to infection. Differentiated THP-1 macrophages were infected with M. avium or M. abscessus for 1 hour with an MOI of 5. Infected cells were washed twice, followed by 1 hour of antibiotic treatment with 200 μg/ml of amikacin to remove extracellular bacteria. […] The treatments (see Table 2) included: (1) uninfected, (2) uninfected+range of BisEDT, (3) untreated+infected with M. avium, (4) M. avium infected+BIZ, (5) untreated+M. abscessus, and (6) M. abscessus infected+BIZ. The time points for sample preparation were 48 hours post infection. CFUs were determined as described above and RNA was collected from similar experiments.
# THP-1 RNA from the cells was isolated using the Rneasy mini kit (Qiagen), followed by treatment with Dnase 1 recombinant (Roche Diagnostics) for 1 hour at 37° C. to remove contaminating genomic DNA. The DNase was inactivated with Turbo DNase-inactivation reagent (Turbo DNA-free kit, Thermo Fisher Scientific) for 2 min at 37° C. Inactivation reagent was removed via centrifugation for 1 min at 10,000×g, and RNA transferred to new collection tubes. RNA samples were stored at […] for future processing. cDNA was transcribed from host RNA using the iScript cDNA synthesis kit (Bio-Rad). The quality of cDNA was tested by PCR with Gold 360 master mix using the manufacturer's specifications (Thermo Fisher Scientific). The RT-qPCR reaction was performed using iQ SYBR Green Supermix (Bio-Rad) and an iCycler (CFX Connect Real-Time Systems, Bio-Rad) as previously described (1). Standard curves for each gene were run in each reaction and used to calculate absolute values of mRNA. Gene expression data are presented as relative expression to beta-actin. Primers (Table 3) were designed in Primer3 using sequences from GenBank (National Center for Biotechnology Information).
# [4] = tested on: A549 cells; assay: IL-10 expression (ELISA) in A549 cells; type: cell-based, human; details: 2 μg/mL and 4 μg/mL, 24 h, compared to untreated control
# Protocol: A549 cells were differentiated with 50 ng/mL PMA for 24 hours, followed by 24 hours in media prior to infection. Cells were washed with media and treated with insoluble BisEDT or other antibiotics, and incubated for 24 h post treatment. Cell media was then removed and frozen at −80° C. Samples were briefly vortexed before conducting ELISA analysis for IL-10 expression (FIG. 1). BisEDT at a concentration of 2 μg/mL and 4 μg/mL increased the level of IL-10 expression level in A549 cells compared to untreated control.
# [5] = tested on: FITC-induced contact hypersensitivity; assay: FITC-induced contact hypersensitivity in mice (ear swelling, histopathology, ear cytokines); type: in vivo, BALB/c mice
# Protocol: Protocol: Male BALB/c mice at 8 weeks old are used in the study.
# All animals, except those in Group 1 (Sham), were sensitized topically (TOP) on the shaved abdominal skin with 200 μL of 0.5% Fluorescein Isothiocyanate (FITC) dissolved in 20% tributyrin in acetone on Days 1 and 2. On Day 7, animals were challenged by applying 20 μL of 0.5% FITC solution onto both sides of the right ear. Animals in Group 1 received nothing.
# Vehicle, BisEDT test articles and reference compound (tacrolimus) were administered topically (TOP) once daily (QD) from Day 6 to Day 9 for 4 consecutive days (1 hour before FITC challenge on Day 7). The vehicle for BisEDT was phosphate-buffered saline (PBS).
# • 2.5 mg/mL BisEDT topical suspension • 1.25 mg/mL BisEDT topical suspension—prepared as a 1:1 dilution of 2.5 mg/mL BisEDT topical suspension in sterile water and vortexed to ensure homogeneity
# Analysis: Ear swelling was measured by an experimenter blinded to treatment group, with a dial thickness micrometer gauge as an index of inflammation 30 min before dosing on Days 7, 8, 9 and 10. On Day 10, ear swelling was measured at 24 hours after the last dosing. Ear edema was calculated by subtracting the thickness of Day 7 (normal control) from Day n (treated ear). Percentage inhibition was calculated according to the formula: (Ic−It)/Ic×100, where Ic and It refer to the increase of ear thickness (mm) both in the control and treated animals. Body weight was recorded daily during the study period.
# The animals were sacrificed on Day 10 and the ears were then harvested and weighed. Half of the right ear was fixed in 10% formalin for histopathology, and the other half was processed for cytokine measurement (IL-18, IL-6, and IL-10) using ThermoFisher Mouse ProcartaPlex Kit by Luminex.
# [6] = tested on: TGF-β; assay: TGF-β expression in plasma of M. avium-infected mice; type: in vivo; details: 28 days treatment, low, med and high dose, compared to vehicle
# Protocol: Protocol: M. avium infection was initiated in mice, and 3 weeks were allowed to pass to establish the infection. The animals were treated for 28 days and grouped according to dosage: vehicle, low dose pravibismane, med dose pravibismane, and high dose pravibismane. At the end of treatment, plasma samples were collected for analysis.
# [7] = tested on: M. abscessus clinical strains; assay: Activity in the macrophage system against M. abscessus clinical strains; type: cell-based; details: all three clinical strains tested
# [8] = topical, compared to vehicle control
compound,measurement,setting,value
"C1C[S][Bi]([S]CC[S][Bi]2[S]CC[S]2)[S]1 [BisEDT, 1,2-(Bis(1,3-dithia-2-bismolane)thio)ethane]",dose highly tolerated without adverse effects,[1],59 µg/kg/day
same,NLRP3 expression (NLRP3/Actin copy number),[2],inhibits NLRP3 expression
same,inhibitory effect on NLRP3 expression,[3]; BisEDT used after the infections,the inhibitory effect was not observed
same,NLRP3 expression,[3]; M. abscessus (MAB 19977) infected cells pretreated with 0.5 μg/ml,reduced NLRP3 expression
same,NLRP3 expression,[3]; M. abscessus infected cells,remained unchanged
same,NLRP3 expression,"[3]; M. avium (MAH 104) infected cells pre-treated with 2 μg/ml, vs M. avium only infected cells",higher NLRP3 expression
same,NLRP3 expression,"[3]; MAH 104 infection, 4 μg/ml treatment, vs MAH 104 infected cells",reduced NLRP3 expression
same,NLRP3 inhibition,[3]; NTM-infected macrophages,even greater dose-related NLRP3 inhibition
same,NLRP3 expression,[3]; pre-treatment with 1 μg/ml prior to MAB 19977 infection,did not impact NLRP3 expression
same,NLRP3 inflammasome expression relative to beta-actin,[3]; uninfected THP-1 cells,dose-related inhibitory effect; also recorded: inhibits AIM2 and NLRP3 inflammasome expression
same,IL-10 expression level,[4],increased
same,overall effect in the FITC-induced contact hypersensitivity model,"[5]; mouse, in vivo",overall anti-inflammatory effect
same,ear swelling,"[5]; topical QD x 4, 2.5 and 1.25 mg/mL, compared to vehicle control",statistically significant and dose-dependent reduction
same,epidermal thickness,[5]; [8],significant reduction
same,histopathological score,[5]; [8],significant reduction
same,expression of TGF-β,[6],consistent reduction
same,activity against M. abscessus in the macrophage system,[7],very active (bactericidal)

# Source: US20260174780A1, “BISMUTH-THIOL COMPOSITIONS AND METHODS FOR TREATING INFLAMMATORY DISEASES” (Microbion Corporation, priority 2022, published 2026)
